Source: patent publication US11998616B2, “Nanoparticles for crossing the blood brain barrier and methods of treatment using the same” (California Institute of Technology, priority 2018, dated 2024)
“Also recorded” adds a separate entry of the source.

Legend:
[1] = Brain uptake of therapeutics in tumor and healthy brain tissue by HPLC; format: in vivo, Rag2−/−; Il2rg−/− mice; settings: IC-established brain tumors; 24 h after 4 mg/kg dose (CPT basis)
Method: Brain Uptake of Therapeutics Differs in Tumor, but not Healthy Tissue between Models. To ascertain whether differences in brain penetration of the therapeutics might explain the discordance in efficacy between brain metastasis models, we systemically administered an additional dose of each treatment at the end of the efficacy study. After 24 h, mice were anesthetized and perfused with PBS to clear any remaining nanoparticles or free drug from the bloodstream. Drug uptake into tumor and healthy brain tissue was quantified by HPLC as previously described.

[2] = system: human BT474-Gluc breast cancer metastatic brain tumors; assay: Antitumor efficacy, brain tumors established by ICD injection; format: in vivo, Rag2−/−; Il2rg−/− mice
Method: Intracardiac (ICD) Brain Metastasis Model. All animals were treated according to the NIH guidelines for animal care and use as approved by the Caltech Institutional Animal Care and Use Committee. BT474-Gluc cells, transduced with an expression cassette encoding Gluc and CFP separated by an internal ribosomal entry site using a lentiviral vector, were obtained from Dr. Jain at Harvard University. BT474-Gluc cells were maintained in RPMI 1640 supplemented with 10% (v/v) FBS in a humidified oven at 37° C. with 5% CO2. 100,000 BT474-Gluc cells were suspended in 100 μL of RPMI and slowly injected into the left ventricle of female Rag2−/−; Il2rg−/− mice. Injections were performed blind, midway between the sternal notch and top of xyphoid process, and 13% anatomical left of sternum. Successful insertion into the left cardiac ventricle was confirmed by a bright red pulse of blood in the syringe.
(§1) Tumor Size Monitoring. For ICD and IV models, formation of BT474-Gluc brain metastatic tumors was monitored by MRI every third week until macroscopic tumors were visible (˜0.2 mm^3 in volume). Tumor growth was then monitored weekly by MRI, as for the IC model. Mice were anaesthetized with 1.5-2% (v/v) isoflurane in O2 at a flow rate of 1-1.5 mL/min. […] Tumor volume was determined manually from the T2 hyperintense tumor regions of the brain using Fiji software. For the IC model, tumor size was also monitored by measuring the activity of secreted Gluc in the blood. […] Blood was transferred to an opaque 96-well plate (Nunc), and Gluc activity measured using the Pierce Gaussia Luciferase Flash Assay Kit, according to the manufacturer's protocol. Photon counts were acquired for 5 s following addition of coelenterazine using a Safire 2 multi-mode plate reader (Tecan). […]
(§2) Treatments. Treatment began when brain metastatic tumors reached ˜2 mm^3, as measured by MRI. […]
Brain Tumors Show Significant Delay in Growth with TfR-Targeted Nanoparticles, but their Response Differs when Established by Different Methods. […] After IC, ICD or IV injection of BT474-Gluc cells, formation of brain metastatic tumors was monitored by MRI. […]

[3] = system: human BT474-Gluc breast cancer metastatic brain tumors; assay: Antitumor efficacy, brain tumors established by IV injection; format: in vivo, Rag2−/−; Il2rg−/− mice
Method: (§3) For the IC model, 50,000 BT474-Gluc cells in 2 μL RPMI were intracranially injected into the right cerebral hemisphere of female Rag2−/−; Il2rg−/− mice (Jackson Laboratory) using a stereotaxic apparatus at a rate of 0.1 μL/min. The coordinates for injection were 2 mm posterior, 1.5 mm lateral to bregma, and 2.5 mm depth from bregma. For the IV model, 2 M cells were suspended in 150 μL RPMI and slowly injected into the lateral tail vein of restrained female Rag2−/−; Il2rg−/− mice.
Tumor Size Monitoring. For ICD and IV models, formation of BT474-Gluc brain metastatic tumors was monitored by MRI every third week until macroscopic tumors were visible (˜0.2 mm^3 in volume). Tumor growth was then monitored weekly by MRI, as for the IC model. Mice were anaesthetized with 1.5-2% (v/v) isoflurane in O2 at a flow rate of 1-1.5 mL/min. T2-weighted 3D RARE images were acquired to assess the tumor volume. The image acquisition parameters were as follows: echo time: 6.1 ms; repetition time: 250 ms; rapid acquisition relaxation enhanced (RARE) factor: 4; number of averages: 4; field of view: 2.0 cm×1.2 cm×0.8 cm; matrix: 200×120×80 ([…] resolution). Tumor volume was determined manually from the T2 hyperintense tumor regions of the brain using Fiji software. For the IC model, tumor size was also monitored by measuring the activity of secreted Gluc in the blood. […] Blood was transferred to an opaque 96-well plate (Nunc), and Gluc activity measured using the Pierce Gaussia Luciferase Flash Assay Kit, according to the manufacturer's protocol. Photon counts were acquired for 5 s following addition of coelenterazine using a Safire 2 multi-mode plate reader (Tecan). […]
as §2
Development of Mouse Model that Replicates the Metastasis Process in HER2-Positive Breast Cancer Brain Metastasis Patients. […] HER2-positive BT474-Gluc cells were intravenously (IV) injected into Rag2^−/−; Il2rg^−/− mice, and formation of brain metastases was monitored by MRI. […]

[4] = system: BT474-Gluc cells; assay: In vitro sensitivity to CPT of BT474-Gluc cells isolated from brain tumors and parental cells; format: cell-based, human; settings: cells from IC-, ICD-, IV-established tumors and parental cells; dose-response curves
[5] = system: human BT474-Gluc breast cancer metastatic brain tumors; assay: Antitumor efficacy, brain tumors established by IC injection; format: in vivo, Rag2−/−; Il2rg−/− mice
Method: as §3
as §1, with “mL/min. T2-weighted 3D RARE images were acquired to assess the tumor volume.” for “mL/min.”
as §2
Brain Tumors Show Significant Delay in Growth with TfR-Targeted Nanoparticles, but their Response Differs when Established by Different Methods. […] After IC, ICD or IV injection of BT474-Gluc cells, formation of brain metastatic tumors was monitored by MRI. […] Brain tumor volume was measured weekly by MRI. Blood Gluc activity was measured in addition only for the IC model, due to substantial extracranial tumor burden in the ICD and IV models.

[6] = Gross toxicity observation during efficacy studies; format: in vivo, Rag2−/−; Il2rg−/− mice; settings: tail vein injection once per week for 4 weeks
Method: Treatments. Treatment began when brain metastatic tumors reached ˜2 mm^3, as measured by MRI. Mice in each model were randomized into […] of six mice per group. CPT at a dose of 4 mg/kg (in 20% DMSO, 20% PEG 400, 30% ethanol, and 30% 10 mM pH 3.5 phosphoric acid), Herceptin at 24 mg/kg (in PBS, pH 7.4), TfR-targeted CPT nanoparticles at 4 mg/kg (CPT basis, in PBS, pH 7.4), TfR-targeted Herceptin nanoparticles at 24 mg/kg (Herceptin basis, in PBS, pH 7.4), and TfR-targeted combination CPT/Herceptin nanoparticles at 4 and 24 mg/kg (CPT and Herceptin bases, respectively, in PBS, pH 7.4) were freshly prepared. The different formulations were systemically administered by lateral tail vein injection once per week for 4 weeks. Injections were standardized to 150 μL per 20 g body weight. The control treatment was 0.9% (w/v) saline.

[7] = 4 mg/kg (CPT basis) weekly x4, end of the study

Q: Which results are given for CC[C@@]1(O)C(=O)OCc2c1cc1n(c2=O)Cc2cc3ccccc3nc2-1 [CPT, camptothecin]?
A: accumulation in tumor tissue [1]: significant accumulation; Mean tumor volume [2, 7]: 69 mm^3; Median tumor volume [2, 7]: 71 mm^3; tumor growth response ([2]; compared to saline): modest response; Mean tumor volume [3, 7]: 86 mm^3; Median tumor volume [3, 7]: 86 mm^3; tumor growth inhibition ([3]; compared to saline): no tumor growth inhibition; sensitivity of cells to CPT in vitro [4]: comparable sensitivities to CPT; also recorded: similarly sensitive to CPT; Mean tumor volume ([5]; 4 mg/kg (CPT basis) tail vein once per week for 4 weeks, end of the study): 39 mm^3; Median tumor volume [5, 7]: 39 mm^3; decrease in mean tumor volume compared to saline ([5]; end of the study): 2.6 fold; gross signs of toxicity [6]: animals did have reactions to dosing
